Measurements as given in patent US6737383B1, “Herbicidal oxadiazolidines” (priority 1999, dated 2004).

Experiments:
Green foxtail = test: Test D green foxtail; type: in vivo; settings: Preemergence, 0 to 100 scale
Excerpt: Seeds, tubers, or plant parts of Alexandergrass (Brachiaria plantaginea), bermuda-grass (Cynodon dactylon), common pursiane (Portulaca oleracea), common ragweed (Ambrosia elatior), common groundsel (Senecio vulgaris), dallisgrass (Paspalum dilatatum), goosegrass (Eleusine indica), guineagrass (Panicum maximum), itchgrass (Rottboellia exaltata), Johnson grass (Sorghum halepense), large crabgrass (Digitaria sanguinalis), pitted morningglory (Ipomoea lacunosa), purple nutsedge (Cyperus rotundus), sandbur (Cenchrus echinatus), sourgrass (Trichachne insularis), Spanishneedles (Bidens bipinnata), surinam grass (Brachiaria decumbens) and tall mallow (Malva sylvestris) were planted into greenhouse pots of flats containing greenhouse planting medium. Plant species were grown in separate pots or individual compartments. Preemergence applications were made within one day of planting the seed or plant part.
Test chemicals were formulated in a non-phytotoxic solvent mixture which included a surfactant and applied preemergence to the surface of the pot containing seeds in a sandy loam soil. Untreated control pots and treated pots were placed in the greenhouse for growth and visually evaluated for injury 14 to 21 days after herbicide application. Plant response ratings, summarized in Table C, are based on a 0 to 100 scale where 0 is no injury and 100 is complete control. A dash (−) response means no test result.

cotton = test: Test C postemergence cotton; type: in vivo, Gossypium hirsutum; settings: 0 to 100 scale, 0 no effect, 100 complete control
Protocol: (§1) Compounds evaluated in this test were formulated in a non-phytotoxic solvent mixture which included a surfactant and applied to plants that were grown for various periods of time before treatment (postemergence application). A mixture of sandy loam soil and greenhouse potting mix in a 60:40 ratio was used for the postemergence test.
(§2) Plantings of these crops and weed species were adjusted to produce plants of appropriate size for the postemergence test. All plant species were grown using normal greenhouse practices. Crop and weed species include arrowleaf sida (Sida rhombifolia), barnyardgrass (Echinochloa crus-galli), cocklebur (Xanthium strumarium), common ragweed (Ambrosia elatior), corn (Zea mays), cotton (Gossypium hirsutum), eastern black nightshade (Solanum ptycanthum), fall panicum (Panicum dichotomiflorum), field bindweed (Convolvulus arvensis), giant foxtail (Setaria faberii), hairy beggarticks (Bidens pilosa), ivyleaf morningglory (Ipomoea hederacea), johnsongrass (Sorghum halepense), ladysthumb smartweed (Polygonum persicaria), lambsquarters (Chenopodium album), large crabgrass (Digitaria sanguinalis), purple nutsedge (Cyperus rotundus), redroot pigweed (Amaranthus retroflexus), soybean (Glycine max), surinam grass (Brachiaria decumbens), velvetleaf (Abutilon theophrasti) and wild poinsettia (Euphorbia heterophylla).
(§3) Treated plants and untreated controls were maintained in a greenhouse for approximately 14, to 21 days, after which all treated plants were compared to untreated controls and visually evaluated. Plant response ratings, summarized in Table C, were based upon a 0 to 100 scale where 0 was no effect and 100 was complete control. A dash response (−) means no test result.

purple nutsedge = test: Test C postemergence purple nutsedge; type: in vivo, Cyperus rotundus; settings: 0 to 100 scale, 0 no effect, 100 complete control
Outline: (§4)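 Scores (0 = no effect, 100 = complete control) come from visual comparison with untreated controls after about 14–21 days. Spray formulation was a non-phytotoxic solvent mixture including surfactant; plants grew in a 60:40 sandy loam–potting mix blend.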

wild poinsettia = test: Test C postemergence wild poinsettia; type: in vivo, Euphorbia heterophylla; settings: 0 to 100 scale, 0 no effect, 100 complete control
Protocol: as §1, §2, §3

surinam grass = test: Test C postemergence surinam grass; type: in vivo, Brachiaria decumbens; settings: 0 to 100 scale, 0 no effect, 100 complete control
Protocol: as §1, §2, §3

soybean = test: Test C postemergence soybean; type: in vivo, Glycine max; settings: 0 to 100 scale, 0 no effect, 100 complete control
Protocol: as §1, §2, §3

ivyleaf morningglory = test: Test C postemergence ivyleaf morningglory; type: in vivo, Ipomoea hederacea; settings: 0 to 100 scale, 0 no effect, 100 complete control
Protocol: as §1, §2, §3

ladysthumb smartweed = test: Test C postemergence ladysthumb smartweed; type: in vivo, Polygonum persicaria; settings: 0 to 100 scale, 0 no effect, 100 complete control
Protocol: as §1, §2, §3

giant foxtail = test: Test C postemergence giant foxtail; type: in vivo, Setaria faberii; settings: 0 to 100 scale, 0 no effect, 100 complete control
Outline: as §4

large crabgrass = test: Test C postemergence large crabgrass; type: in vivo, Digitaria sanguinalis; settings: 0 to 100 scale, 0 no effect, 100 complete control
Protocol: as §1, §2, §3

barnyardgrass = test: Test C postemergence barnyardgrass; type: in vivo, Echinochloa crus-galli; settings: 0 to 100 scale, 0 no effect, 100 complete control
Outline: as §4

corn = test: Test C postemergence corn; type: in vivo, Zea mays; settings: 0 to 100 scale, 0 no effect, 100 complete control
Outline: as §4

cocklebur = test: Test C postemergence cocklebur; type: in vivo, Xanthium strumarium; settings: 0 to 100 scale, 0 no effect, 100 complete control
Protocol: as §1, §2, §3

velvetleaf = test: Test A velvetleaf; type: in vivo, Abutilon theophrasti; settings: 0 to 10 scale where 0 is no effect and 10 is complete control
Outline: (§5)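 Injury scored visually after about eleven greenhouse days against untreated plants, 0 = no effect, 10 = complete control. Compounds, formulated in surfactant-containing non-phytotoxic solvent, were applied as preemergence soil drench to sandy loam plantings and as postemergence runoff spray at the 1–2 leaf stage.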

crabgrass = test: Test A crabgrass; type: in vivo, Digitaria spp.; settings: 0 to 10 scale where 0 is no effect and 10 is complete control
Outline: as §5

## Cc1ccccc1-n1c(=O)on(C(=O)N(c2ccccc2)C(C)C)c1=O [Compound 36]
Green foxtail; Rate 500 g/ha
  Plant response rating, Green foxtail: 100

## C=CCn1c(=O)on(C(=O)N(c2ccc(F)cc2)C(C)C)c1=O [Compound 146]
cotton; Rate 140 g/ha
  Plant response rating Cotton: 40
cotton; Rate 280 g/ha
  Plant response rating Cotton: 65
cotton; Rate 560 g/ha
  Plant response rating Cotton: 65
cotton; Rate 1120 g/ha
  Plant response rating Cotton: 70
Purple nutsedge; Rate 140 g/ha
  Plant response rating, Purple nutsedge: 0
Purple nutsedge; Rate 280 g/ha
  Plant response rating, Purple nutsedge: 0
Purple nutsedge; Rate 560 g/ha
  Plant response rating, Purple nutsedge: 0
Purple nutsedge; Rate 1120 g/ha
  Plant response rating, Purple nutsedge: 0
Wild poinsettia; Rate 140 g/ha
  Plant response rating Wild poinsettia: 0
Wild poinsettia; Rate 280 g/ha
  Plant response rating Wild poinsettia: 40
Wild poinsettia; Rate 560 g/ha
  Plant response rating Wild poinsettia: 50
Wild poinsettia; Rate 1120 g/ha
  Plant response rating Wild poinsettia: 70
Surinam grass; Rate 140 g/ha
  Plant response rating Surinam grass: 0
Surinam grass; Rate 280 g/ha
  Plant response rating Surinam grass: 5
Surinam grass; Rate 560 g/ha
  Plant response rating Surinam grass: 50
Surinam grass; Rate 1120 g/ha
  Plant response rating Surinam grass: 95
soybean; Rate 140 g/ha
  Plant response rating, Soybean: 40
soybean; Rate 280 g/ha
  Plant response rating, Soybean: 50
soybean; Rate 560 g/ha
  Plant response rating, Soybean: 60
soybean; Rate 1120 g/ha
  Plant response rating, Soybean: 85
Ivyleaf morningglory; Rate 140 g/ha
  Plant response rating I. morningglory: 0
Ivyleaf morningglory; Rate 280 g/ha
  Plant response rating I. morningglory: 20
Ivyleaf morningglory; Rate 560 g/ha
  Plant response rating I. morningglory: 20
Ivyleaf morningglory; Rate 1120 g/ha
  Plant response rating I. morningglory: 50
Ladysthumb smartweed; Rate 140 g/ha
  Plant response rating Ladysthumb: 0
Ladysthumb smartweed; Rate 280 g/ha
  Plant response rating Ladysthumb: 10
Ladysthumb smartweed; Rate 560 g/ha
  Plant response rating Ladysthumb: 85
Giant foxtail; Rate 140 g/ha
  Plant response rating, Giant foxtail: 0
Giant foxtail; Rate 280 g/ha
  Plant response rating, Giant foxtail: 40
Giant foxtail; Rate 560 g/ha
  Plant response rating, Giant foxtail: 80
Giant foxtail; Rate 1120 g/ha
  Plant response rating, Giant foxtail: 85
Large crabgrass; Rate 140 g/ha
  Plant response rating Large crabgrass: 0
Large crabgrass; Rate 280 g/ha
  Plant response rating Large crabgrass: 60
Large crabgrass; Rate 560 g/ha
  Plant response rating Large crabgrass: 60
Large crabgrass; Rate 1120 g/ha
  Plant response rating Large crabgrass: 80
Green foxtail; Rate 250 g/ha
  Plant response rating, Green foxtail: 100
Green foxtail; Rate 500 g/ha
  Plant response rating, Green foxtail: 100
barnyardgrass; Rate 140 g/ha
  Plant response rating, Barnyardgrass: 60
barnyardgrass; Rate 280 g/ha
  Plant response rating, Barnyardgrass: 80
barnyardgrass; Rate 560 g/ha
  Plant response rating, Barnyardgrass: 85
barnyardgrass; Rate 1120 g/ha
  Plant response rating, Barnyardgrass: 95
corn; Rate 140 g/ha
  Plant response rating, Corn: 0
corn; Rate 280 g/ha
  Plant response rating, Corn: 0
corn; Rate 560 g/ha
  Plant response rating, Corn: 5
corn; Rate 1120 g/ha
  Plant response rating, Corn: 50
cocklebur; Rate 140 g/ha
  Plant response rating, Cocklebur: 40
cocklebur; Rate 280 g/ha
  Plant response rating, Cocklebur: 40
cocklebur; Rate 560 g/ha
  Plant response rating, Cocklebur: 70
cocklebur; Rate 1120 g/ha
  Plant response rating, Cocklebur: 70

## CC(C)N(C(=O)n1oc(=O)n(N(C)c2ccccc2)c1=O)c1ccc(F)cc1 [Compound 177]
velvetleaf; Postemergence, Rate 1000 g/ha
  Plant response rating, Velvetleaf: 2
velvetleaf; Pre-emergence, Rate 2000 g/ha
  Plant response rating, Velvetleaf: 1
crabgrass; Postemergence, Rate 1000 g/ha
  Plant response rating, Crabgrass: 3
crabgrass; Pre-emergence, Rate 2000 g/ha
  Plant response rating, Crabgrass: 9

## CC(C)N(C(=O)n1oc(=O)n(C)c1=O)c1ccc(Cl)cc1 [Compound 137]
velvetleaf; Postemergence, Rate 1000 g/ha
  Plant response rating, Velvetleaf: 2
velvetleaf; Pre-emergence, Rate 2000 g/ha
  Plant response rating, Velvetleaf: 5
crabgrass; Postemergence, Rate 1000 g/ha
  Plant response rating, Crabgrass: 8
crabgrass; Pre-emergence, Rate 2000 g/ha
  Plant response rating, Crabgrass: 10
